Data: the NIST ThermoML archive (doi:10.1016/j.jct.2017.07.040)

Assay: mn = molality of the nth substance listed, in mol/kg
Settings: 101 kPa, Liquid; for viscosity: Capillary tube (Ostwald / Ubbelohde) method; for speed of sound: Frequency=6 MHz, Linear variable-path acoustic interferometer; for mass density: Vibrating tube method

CC1(C)S[C@@H]2[C@H](NC(=O)[C@H](N)c3ccccc3)C(=O)N2[C@H]1C(=O)[O-].[Na+] [Ampicillin Sodium] + O
Settings	mass density [kg/m3]	speed of sound [m/s]	viscosity [mPa·s]
293.15 K, m1 = 0.035	1002.84	1487.5	1.034
293.15 K, m1 = 0.055	1005.4	1492	1.072
293.15 K, m1 = 0.075	1007.9	1496.1	1.109
293.15 K, m1 = 0.095	1010.54	1501.3	1.113
298.15 K, m1 = 0.035	1001.64	1501.6	0.9268
298.15 K, m1 = 0.055	1004.16	1505.6	0.9663
298.15 K, m1 = 0.075	1006.66	1509.6	1.008
298.15 K, m1 = 0.095	1009.25	1515	1.05
303.15 K, m1 = 0.035	1000.19	1514	0.8381
303.15 K, m1 = 0.055	1002.69	1518.1	0.8814
303.15 K, m1 = 0.075	1005.1	1522.1	0.9262
303.15 K, m1 = 0.095	1007.7	1526	0.9736
308.15 K, m1 = 0.035	998.531	1524.7	0.7612
308.15 K, m1 = 0.055	1001.01	1529	0.8077
308.15 K, m1 = 0.075	1003.04	1533	0.8543
308.15 K, m1 = 0.095	1005.84	1535.7	0.9016
313.15 K, m1 = 0.035	996.661	1533.8	0.6978
313.15 K, m1 = 0.055	999.128	1538	0.748
313.15 K, m1 = 0.075	1000.49	1542.5	0.7967
313.15 K, m1 = 0.095	1003.74	1546.1	0.8021

N[C@@H](Cc1c[nH]cn1)C(=O)O [L-histidine] + O
Settings	mass density [kg/m3]	speed of sound [m/s]	viscosity [mPa·s]
293.15 K, m1 = 0.01	998.806	1483.9	1.009
293.15 K, m1 = 0.03	999.974	1485.7	1.016
293.15 K, m1 = 0.05	1001.14	1487.5	1.022
293.15 K, m1 = 0.07	1002.32	1489.3	1.028
293.15 K, m1 = 0.09	1003.5	1491.1	1.034
293.15 K, m1 = 0.11	1004.68	1492.8	1.04
298.15 K, m1 = 0.01	997.635	1498.2	0.8956
298.15 K, m1 = 0.03	998.775	1500	0.9014
298.15 K, m1 = 0.05	999.914	1501.7	0.9061
298.15 K, m1 = 0.07	1001.05	1503.2	0.9107
298.15 K, m1 = 0.09	1002.19	1505	0.9156
298.15 K, m1 = 0.11	1003.33	1506.9	0.9197
303.15 K, m1 = 0.01	996.232	1510.3	0.8015
303.15 K, m1 = 0.03	997.346	1512	0.8061
303.15 K, m1 = 0.05	998.458	1513.7	0.8103
303.15 K, m1 = 0.07	999.567	1515.4	0.8143
303.15 K, m1 = 0.09	1000.68	1517	0.8178
303.15 K, m1 = 0.11	1001.79	1518.7	0.8217
308.15 K, m1 = 0.01	994.608	1521	0.7223
308.15 K, m1 = 0.03	995.696	1522.7	0.7259
308.15 K, m1 = 0.05	996.785	1524.3	0.7292
308.15 K, m1 = 0.07	997.874	1525.9	0.7323
308.15 K, m1 = 0.09	998.961	1527.5	0.7356
308.15 K, m1 = 0.11	1000.05	1529.1	0.7389
313.15 K, m1 = 0.01	992.782	1530.1	0.6553
313.15 K, m1 = 0.03	993.848	1531.7	0.6584
313.15 K, m1 = 0.05	994.918	1533.2	0.6613
313.15 K, m1 = 0.07	995.988	1534.8	0.6638
313.15 K, m1 = 0.09	997.06	1536.3	0.6669
313.15 K, m1 = 0.11	998.13	1537.8	0.6692

O [water] + CC1(C)S[C@@H]2[C@H](NC(=O)[C@H](N)c3ccccc3)C(=O)N2[C@H]1C(=O)[O-].[Na+]
m2 = 0
Settings	mass density [kg/m3]	speed of sound [m/s]	viscosity [mPa·s]
293.15 K	–	–	1.002
298.15 K	–	–	0.8903
303.15 K	–	–	0.7973
308.15 K	994.063	–	0.719
313.15 K	–	1529.3	0.6526

O [water] + N[C@@H](Cc1c[nH]cn1)C(=O)O
m2 = 0
Settings	mass density [kg/m3]	speed of sound [m/s]	viscosity [mPa·s]
293.15 K	–	–	1.002
298.15 K	–	–	0.8903
303.15 K	–	–	0.7973
308.15 K	994.063	–	0.719
313.15 K	–	1529.3	0.6526
